# Measurements as given in ChEMBL document CHEMBL3880411, “Multikinase inhibitors for use in the treatment of cancer” (2009).
# Calls of active or inactive are those of the source. No cut-off for these calls is given here.
# Experiments:
# [1] = target: Dual specificity mitogen-activated protein kinase kinase 1 (Homo sapiens, UniProt Q02750); assay: Inhibition of MEK1 (unknown origin) using ERK2 as substrate after 40 mins by ELISA
# [2] = target: Nuclear factor NF-kappa-B complex (Homo sapiens) (UniProt Q00653+P19838+Q04206); assay: Inhibition of NFkappaB (unknown origin); type: protein-complex assay
# Sequence of Nuclear factor NF-kappa-B complex (Homo sapiens) (P19838 whole entry, looked up): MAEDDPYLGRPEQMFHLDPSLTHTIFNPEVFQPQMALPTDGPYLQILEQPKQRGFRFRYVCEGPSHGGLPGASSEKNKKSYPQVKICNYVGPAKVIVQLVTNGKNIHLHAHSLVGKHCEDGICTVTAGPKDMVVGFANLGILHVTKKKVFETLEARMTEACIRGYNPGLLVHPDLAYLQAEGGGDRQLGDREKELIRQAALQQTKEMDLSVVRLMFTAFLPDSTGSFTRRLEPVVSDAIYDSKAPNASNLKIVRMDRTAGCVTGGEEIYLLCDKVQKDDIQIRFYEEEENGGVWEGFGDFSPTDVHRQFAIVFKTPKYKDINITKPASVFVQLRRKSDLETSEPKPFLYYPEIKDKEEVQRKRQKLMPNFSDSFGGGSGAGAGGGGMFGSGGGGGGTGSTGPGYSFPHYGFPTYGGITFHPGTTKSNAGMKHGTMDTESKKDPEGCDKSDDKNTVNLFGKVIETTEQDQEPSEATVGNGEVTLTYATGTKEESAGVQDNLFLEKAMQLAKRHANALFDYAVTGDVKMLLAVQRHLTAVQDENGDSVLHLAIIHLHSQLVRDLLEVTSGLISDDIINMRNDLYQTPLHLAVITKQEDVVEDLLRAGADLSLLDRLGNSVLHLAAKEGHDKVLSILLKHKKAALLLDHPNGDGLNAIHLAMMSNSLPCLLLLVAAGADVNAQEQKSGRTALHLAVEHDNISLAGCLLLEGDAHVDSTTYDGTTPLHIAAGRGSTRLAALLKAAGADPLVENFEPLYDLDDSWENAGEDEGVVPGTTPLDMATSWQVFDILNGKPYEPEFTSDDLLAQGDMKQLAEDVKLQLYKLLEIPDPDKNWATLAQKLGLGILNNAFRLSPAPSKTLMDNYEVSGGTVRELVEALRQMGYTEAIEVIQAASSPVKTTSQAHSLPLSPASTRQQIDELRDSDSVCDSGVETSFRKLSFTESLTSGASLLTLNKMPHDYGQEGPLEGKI
# Sequence of Nuclear factor NF-kappa-B complex (Homo sapiens) (Q00653 whole entry, looked up): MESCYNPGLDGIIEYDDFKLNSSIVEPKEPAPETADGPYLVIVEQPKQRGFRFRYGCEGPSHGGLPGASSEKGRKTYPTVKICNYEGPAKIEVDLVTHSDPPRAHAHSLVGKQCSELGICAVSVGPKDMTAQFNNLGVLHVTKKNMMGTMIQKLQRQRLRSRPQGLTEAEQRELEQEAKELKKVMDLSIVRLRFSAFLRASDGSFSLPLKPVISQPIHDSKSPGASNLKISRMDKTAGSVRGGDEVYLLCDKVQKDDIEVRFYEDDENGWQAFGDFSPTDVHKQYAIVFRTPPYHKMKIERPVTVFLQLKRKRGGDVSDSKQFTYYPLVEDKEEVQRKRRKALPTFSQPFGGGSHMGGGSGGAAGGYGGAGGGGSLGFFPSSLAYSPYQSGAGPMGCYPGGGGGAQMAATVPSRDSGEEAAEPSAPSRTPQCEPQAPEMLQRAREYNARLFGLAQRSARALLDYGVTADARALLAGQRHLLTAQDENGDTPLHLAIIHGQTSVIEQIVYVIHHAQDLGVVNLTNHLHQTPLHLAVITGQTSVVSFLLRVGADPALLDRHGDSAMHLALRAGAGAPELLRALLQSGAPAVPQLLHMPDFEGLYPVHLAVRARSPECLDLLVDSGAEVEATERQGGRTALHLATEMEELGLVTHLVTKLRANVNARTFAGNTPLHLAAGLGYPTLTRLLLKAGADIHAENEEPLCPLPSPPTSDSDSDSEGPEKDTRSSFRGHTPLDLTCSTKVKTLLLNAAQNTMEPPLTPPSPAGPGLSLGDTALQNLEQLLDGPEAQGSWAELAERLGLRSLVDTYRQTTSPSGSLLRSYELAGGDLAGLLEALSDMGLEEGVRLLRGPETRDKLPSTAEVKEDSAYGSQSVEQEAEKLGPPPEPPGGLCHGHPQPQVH
# Sequence of Nuclear factor NF-kappa-B complex (Homo sapiens) (Q04206 whole entry, looked up): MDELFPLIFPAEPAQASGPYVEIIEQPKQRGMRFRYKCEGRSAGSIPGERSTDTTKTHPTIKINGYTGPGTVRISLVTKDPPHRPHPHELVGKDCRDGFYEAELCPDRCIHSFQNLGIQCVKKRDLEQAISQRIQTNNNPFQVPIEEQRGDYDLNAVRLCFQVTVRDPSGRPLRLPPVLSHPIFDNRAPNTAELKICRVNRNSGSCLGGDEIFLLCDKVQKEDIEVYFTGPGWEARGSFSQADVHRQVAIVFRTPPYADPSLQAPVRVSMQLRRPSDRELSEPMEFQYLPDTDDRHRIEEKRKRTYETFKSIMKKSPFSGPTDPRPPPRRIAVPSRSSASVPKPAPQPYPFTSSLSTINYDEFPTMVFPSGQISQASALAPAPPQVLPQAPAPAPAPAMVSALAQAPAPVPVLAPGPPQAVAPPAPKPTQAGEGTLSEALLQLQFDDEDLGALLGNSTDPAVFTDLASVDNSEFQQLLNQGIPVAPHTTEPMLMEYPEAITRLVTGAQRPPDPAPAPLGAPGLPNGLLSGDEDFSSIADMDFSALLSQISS
# Sequence of Dual specificity mitogen-activated protein kinase kinase 1 (Q02750 whole entry): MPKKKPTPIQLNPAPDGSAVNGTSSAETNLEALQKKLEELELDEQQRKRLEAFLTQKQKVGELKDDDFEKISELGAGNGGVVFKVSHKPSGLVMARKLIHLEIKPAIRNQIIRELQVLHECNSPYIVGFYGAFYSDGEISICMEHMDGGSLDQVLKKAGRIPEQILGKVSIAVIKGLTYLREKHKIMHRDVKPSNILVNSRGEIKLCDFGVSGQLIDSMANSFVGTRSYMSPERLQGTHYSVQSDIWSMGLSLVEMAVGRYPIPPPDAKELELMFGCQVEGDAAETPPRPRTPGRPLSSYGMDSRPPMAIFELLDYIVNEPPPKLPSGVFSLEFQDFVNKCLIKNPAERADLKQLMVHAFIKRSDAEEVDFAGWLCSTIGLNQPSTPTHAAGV
Compound,IC50 [1] [µM],inhibition [2]
C[C@@H]1/C=C\C(=O)[C@@H](O)[C@@H](O)C/C=C/c2cc(NCCn3ccnc3)cc(O)c2C(=O)O[C@H]1C,0.12,Active
C[C@@H]1/C=C\C(=O)[C@@H](O)[C@@H](O)C/C=C/c2cc(NOC[C@H](O)CO)cc(O)c2C(=O)O[C@H]1C,0.187,Active
C[C@@H]1/C=C\C(=O)[C@@H](O)[C@@H](O)C/C=C/c2cc(NCCN3CCOCC3)cc(O)c2C(=O)O[C@H]1C,0.091 to 0.101,Active
C[C@@H]1/C=C\C(=O)[C@@H](O)[C@@H](O)C/C=C/c2cc(NC3CC3)cc(O)c2C(=O)O[C@H]1C,0.657,Active
C[C@@H]1/C=C\C(=O)[C@@H](O)[C@@H](O)C/C=C/c2cc(N(CCNCC(O)CO)C(=O)OC(C)(C)C)cc(O)c2C(=O)O[C@H]1C (some centres undefined),,Active
CCNc1cc(O)c2c(c1)C#CC[C@H](O)[C@H](O)C(=O)/C=C\[C@@H](C)[C@H](C)OC2=O,0.182,Active
C[C@@H]1/C=C\C(=O)[C@@H](O)[C@@H](O)C/C=C/c2cc(NCC3CCNCC3)cc(O)c2C(=O)O[C@H]1C,0.356,Active
C[C@@H]1/C=C\C(=O)[C@@H](O)[C@@H](O)C/C=C/c2cc(N3CCNC3=O)cc(O)c2C(=O)O[C@H]1C,0.484,Active
CCNc1cc(O)c2c(c1)/C=C/C[C@H](O)[C@@H](O)C(=O)/C=C/[C@@H](C)[C@H](C)OC2=O,,Active
CCNc1cc(O)c2c(c1)/C=C/C[C@@H]1OC(=O)O[C@@H]1C(=O)/C=C\[C@@H](C)[C@H](C)OC2=O,0.145,Active
C[C@@H]1/C=C\C(=O)[C@@H](O)[C@@H](O)C/C=C/c2cc(NCCN3CCN(C)CC3)cc(O)c2C(=O)O[C@H]1C,0.471 to 0.946,Active
C[C@@H]1/C=C\C(=O)[C@@H](O)[C@@H](O)C/C=C/c2cc(N3CCOC3=O)cc(O)c2C(=O)O[C@H]1C,0.187,Active
CCNc1cc(O)c2c(c1)/C=C/C[C@H](OC(=O)C(F)(F)F)[C@@H](O)C(=O)/C=C\[C@@H](C)[C@H](C)OC2=O,0.079,Active
C[C@@H]1/C=C\C(=O)[C@@H](O)[C@@H](O)C/C=C/c2cc(CCCn3ccnc3)cc(O)c2C(=O)O[C@H]1C,0.0095 to 0.037,Active

# The next lines start with the values.
IC50 [1] [µM],inhibition [2],Compound
0.318,Active,C[C@@H]1/C=C\C(=O)[C@@H](O)[C@@H](O)C/C=C/c2cc(NCC(=O)N(C)C)cc(O)c2C(=O)O[C@H]1C
,Active,CNc1cc(O)c2c(c1)/C=C/C[C@H](O)[C@@H](O)C(=O)/C=C\[C@@H](C)[C@H](C)OC2=O
0.099 to 0.31,Active,C[C@@H]1/C=C\C(=O)[C@@H](O)[C@@H](O)C/C=C/c2cc(NCC(N)=O)cc(O)c2C(=O)O[C@H]1C
0.056 to 0.101,Active,C[C@@H]1/C=C\C(=O)[C@@H](O)[C@@H](O)C/C=C/c2cc(NCC(O)CO)cc(O)c2C(=O)O[C@H]1C (some centres undefined)
0.756,Active,COCCOCCOCCNCNc1cc(O)c2c(c1)/C=C/C[C@H](O)[C@H](O)C(=O)/C=C\[C@@H](C)[C@H](C)OC2=O
0.172,Active,COCCNc1cc(O)c2c(c1)/C=C/C[C@H](O)[C@H](O)C(=O)/C=C\[C@@H](C)[C@H](C)OC2=O
> 0.33,Active,C[C@@H]1/C=C\C(=O)[C@@H](O)[C@@H](O)C/C=C/c2cc(NOCC(=O)O)cc(O)c2C(=O)O[C@H]1C
,Active,CNc1cc(O)c2c(c1)/C=C/C[C@H](O)[C@@H](O)C(=O)/C=C/[C@@H](C)[C@H](C)OC2=O
0.366,Active,C[C@@H]1/C=C\C(=O)[C@@H](O)[C@@H](O)C/C=C/c2cc(NCC(=O)O)cc(O)c2C(=O)O[C@H]1C
> 0.33,Active,C[C@@H]1/C=C\C(=O)[C@@H](O)[C@@H](O)C/C=C/c2cc(NCCOP(=O)(O)O)cc(O)c2C(=O)O[C@H]1C
0.658,Active,C[C@@H]1/C=C\C(=O)[C@@H](O)[C@@H](O)C/C=C/c2cc(NCCNCC(O)CO)cc(O)c2C(=O)O[C@H]1C (some centres undefined)
0.657,Active,CNC(=O)CNc1cc(O)c2c(c1)/C=C/C[C@H](O)[C@H](O)C(=O)/C=C\[C@@H](C)[C@H](C)OC2=O
0.356 to 0.64,Active,C[C@@H]1/C=C\C(=O)[C@@H](O)[C@@H](O)C/C=C/c2cc(NCCN3CCCC3)cc(O)c2C(=O)O[C@H]1C
0.091 to 0.198,Active,C[C@@H]1/C=C\C(=O)[C@@H](O)[C@@H](O)C/C=C/c2cc(NCCO)cc(O)c2C(=O)O[C@H]1C
0.846,Active,C[C@@H]1/C=C\C(=O)[C@@H](O)[C@@H](O)C/C=C/c2cc(NCCNCCO)cc(O)c2C(=O)O[C@H]1C
